Columns and labels:
Assay type in all cases: cell-based
[1] = system: Bacillus cerreus ATCC 14579; assay: Disk diffusion method, B. cerreus; conditions: complexes 5 µL of 1 mg/mL; 25 µg Amoxicillin, 5 µg Norfloxacin; 24 h, 37 °C
From the text: (§1) The disk diffusion method was used to determine the antibacterial activity of the C1 and C2 copper complexes on four reference microbial strains, two Gram-positive (Staphylococcus aureus and Bacillus cerreus) and two Gram-negative (Escherichia coli and Pseudomonas aeruginosa) strains. The disk diffusion method was used to determine the antibacterial activity of the C1 and C2 copper complexes. The method was adapted for the purposes of the current study, according to the standards developed by the Clinical and Laboratory Standards Institute. Four reference microbial strains, two Gram-positive (Staphylococcus aureus ATCC […] and Bacillus cerreus ATCC 14579) and two Gram-negative (Escherichia coli ATCC 10536 and Pseudomonas aeruginosa ATCC 27853) strains, were used for in vitro susceptibility testing. These reference microbial strains were obtained from the American Type Culture Collection (ATCC, Manassas, VA, USA). As positive controls, Amoxicillin (Oxoid Ltd., Basingstoke, UK) and Norfloxacin (Sigma-Aldrich) were used. For each of the four species, an initial suspension of bacterial cultures was inoculated on nutrient agar plates (Merck KGaA, Darmstadt, Germany), incubated for 24 h at 37 ± 2 °C and resuspended in a physiological saline buffer to a […] concentration (on a 0.5 McFarland scale), and further inoculated on Muëller Hinton agar plates (Merck KGaA, Darmstadt, Germany). […] After inoculation, the medium surface was dried and 8 wells were radially drilled 1.5 cm from the outer edge, 3 cm apart. From aliquot samples of 1 mg/mL of each copper complex dissolved in DMSO and incorporated in sterile liquid medium, 5 μL was placed in each of the 8 wells and left for 30 min to diffuse into the agar plates. The plates were then incubated for 24 h at 37 ± 2 °C. Then, 25 μg Amoxicillin and 5 μg Norfloxacin served as a positive controls, while DMSO 0.75% was used as a negative control. Readings were conducted by measuring the diameter of the inhibition zone (Halo Zone Test, in mm). The germ sensitivity of the copper complexes was estimated by comparing the diameter of the inhibition area to that generated by the regular antibiotics with known inhibition values. […] All tests were triplicated, and the measured diameters of the inhibition zone were expressed (in mm) as mean ± standard deviation.

[2] = system: Staphylococcus aureus ATCC 6538P; assay: Disk diffusion method, S. aureus; conditions: complexes 5 µL of 1 mg/mL; 25 µg Amoxicillin, 5 µg Norfloxacin; 24 h, 37 °C
From the text: as §1

[3] = system: human cervical carcinoma line (HeLa); assay: MTT cytotoxicity assay, HeLa; conditions: HeLa cells
Protocol: (§2) Three cell lines were used to determine the cytotoxicity of the complexes, a human cervical carcinoma line (HeLa), a human radical growth phase melanoma cell line (WM35), and a normal fibroblastic epithelial cell line (HFL1) using the MTT method. The cells were exposed to C1 and C2 complexes in different concentrations (50, 25, 12.5, 2, and 0.2 µM) at 24, 48, and 72 h. As positive contro, cisplatin was used.
(§3) To determine the cytotoxicity of the copper complexes, three cell lines were used: a human cervical carcinoma line (HeLa), a human radical growth phase melanoma cell line (WM35), and a normal fibroblastic epithelial cell line (HFL1). The cell lines were obtained from ATCC (American Type Cell Collection, Manassas, VA 20110-2209, USA) and were maintained in DMEM (Sigma-Aldrich, Saint Louis, Missouri, USA) supplemented with 10% fetal bovine serum (Hyclone), 1 mM glutamine (Sigma-Aldrich), and 1% antibiotic antimycotic 100× (Sigma-Aldrich). The cells were cultured at 37 °C in an atmosphere of 5% CO2 and 95% relative humidity.
(§4) The cytotoxicity assays were performed using the MTT assay (3-(4,5-dimethylthiazol-2-yl)-2,5-diphenyl tetrazolium bromide-Sigma Aldrich). Cells were plated at a density of 1 × 10^5 cells/well in 96-well plates for 24 h in normal propagation media. The cultures were then exposed to C1 and C2 complexes in different concentrations (50, 25, 12.5, 2, and 0.2 µM). The complexes were first solubilized in DMSO (Sigma) and then serial dilutions in media were performed until the final concentration of DMSO was less than 1%. As a positive control, cisplatin (Ebewe Pharma Ges.m.b.H. Nfg. KG, Austria) was used, in the same concentrations as the complexes. As a negative control, cell lines cultivated in normal expansion medium with the same amount of DMSO added were used. The cellular viability was determined using the MTT assay at 24, 48, and 72 h, respectively. Formazan particles were solubilized with DMSO and absorbances were determined at 550 nm using a microplate reader (Bio-Rad, Hercules, CA, USA). The cytotoxic activity, expressed as IC50 values representing the complex solution required to inhibit 50% of the cell proliferation, were calculated from the calibration curve by nonlinear regression. Each experiment was carried out in triplicate.

[4] = system: Staphylococcus aureus ATCC 6538P; assay: MIC, serial broth microdilution, S. aureus; conditions: 24 h, 37 °C
Protocol: (§5) The values of MIC, defined as the lowest concentration of antimicrobial complex that prevents visible growth of germs, are presented in Table S4 in the Supplementary Material. To quantify the copper complexes effectiveness as antibacterial agents, their minimum inhibitory concentrations (MICs) were determined using the serial broth microdilution method described by Quinn et al. and Markey et al.. The method was adapted for the purposes of the current study, according to the standards developed by the Clinical and Laboratory Standards Institute. The tests were performed on the same Gram-positive and Gram-negative reference microbial strains. Ten successive dilutions of the copper complexes solutions (1/2 to 1/1024) in nutrient broth (Merck KGaA, Darmstadt, Germany) were performed and then were placed in sterile microplates (one each for every copper complex). The microplates were incubated at 37 ± 2 °C for 24 h. Comparisons of the amount of bacterial growth in each well containing copper complexes solutions with the amount of growth in the growth control wells were performed and the maximal dilution for which the tested copper complexes inhibited bacterial growth was determined.

[5] = system: Bacillus cerreus ATCC 14579; assay: MIC, serial broth microdilution, B. cerreus; conditions: 24 h, 37 °C
Protocol: as §5

[6] = system: Pseudomonas aeruginosa ATCC 27853; assay: MIC, serial broth microdilution, P. aeruginosa; conditions: 24 h, 37 °C
Protocol: as §5

[7] = system: normal fibroblastic epithelial cell line (HFL1); assay: MTT cytotoxicity assay, HFL1; conditions: HFL1 cells
Protocol: as §2, §3, §4

| Substance | Halo Zone Test (diameter of the inhibition zone) [1] [mm] | Halo Zone Test (diameter of the inhibition zone) [2] [mm] | IC50 ([3]; 24 h) [µM] | IC50 ([3]; 48 h) [µM] | IC50 ([3]; 72 h) [µM] | MIC [4] [µg/mL] | MIC [5] [µg/mL] | MIC [6] [µg/mL] | IC50 ([7]; 24 h) [µM] | IC50 ([7]; 48 h) [µM] | IC50 ([7]; 72 h) [µM] |
| --- | --- | --- | --- | --- | --- | --- | --- | --- | --- | --- | --- |
| [Cu(N-(5-(4-Methylphenyl)-[1,3,4]-Thiadiazole-2-yl) Naphtalenesulfonamidate)2(H2O)3] [C1] | 11 ± 0.25 | 13 ± 0.17 | 33.18 ± 0.19 | 16.36 ± 0.12 | 6.47 ± 0.06 | 0.289 | 0.304 | 0.196 | 44.7 ± 0.51 | 7.38 ± 0.12 | 3.75 ± 0.15 |
| [Cu(N-(5-Ethyl--[1,3,4]-Thiadiazole-2-yl) Naphtalenesulfonamidate)2(py)2(H2O)] [C2] | 12 ± 0.34 | 15 ± 0.44 | 8.79 ± 0.21 | 4.06 ± 0.05 | 1.45 ± 0.09 | 0.202 | 0.293 | 0.089 | 18 ± 1.08 | 5.55 ± 0.22 | 2.03 ± 0.04 |

Source: PMC9144936, “New Cu^+2 Complexes with N-Sulfonamide Ligands: Potential Antitumor, Antibacterial, and Antioxidant Agents” (Molecules, 2022)
